Where two headings read alike, the source gives them in different places.
Assays:
Format in all cases: cell-based, Escherichia coli
EKO-35 araC::mdtBC = experiment: MIC susceptibility profiling, efflux platform
How it was run: (§1)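 Growth inhibition was scored by OD600, with readings taken before incubation subtracted from those after. Cells were grown in MHB II at 37 °C for 18 h with aeration, against duplicate 2-fold compound series and DMSO-only wells. Inoculum: PBS suspension at OD600 ~1.0 diluted 1/2000.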

EKO-35 araC::acrD = experiment: MIC susceptibility profiling, efflux platform
How it was run: as §1

[1] = system: EKO-35 araC::mexCD (MexCD from P. aeruginosa); experiment: MIC susceptibility profiling, efflux platform
How it was run: as §1

EKO-35 araC::acrBD408A = experiment: MIC susceptibility profiling, efflux platform
How it was run: as §1

EKO-35 araC::mdtEF = experiment: MIC susceptibility profiling, efflux platform
How it was run: as §1

EKO-35 araC::emrKY = experiment: MIC susceptibility profiling, efflux platform
How it was run: as §1

EKO-35 araC::emrAB = experiment: MIC susceptibility profiling, efflux platform
How it was run: as §1

EKO-35 araC::macAB = experiment: MIC susceptibility profiling, efflux platform
How it was run: as §1

EKO-35 araC::acrB = experiment: MIC susceptibility profiling, efflux platform
How it was run: as §1

EKO-35 araC::acrEF = experiment: MIC susceptibility profiling, efflux platform
How it was run: as §1

E. coli ΔtolC = experiment: microbe, parasite or virus in culture
How it was run: as §1

E. coli EKO-35 = experiment: microbe, parasite or virus in culture; conditions: for MIC: Escherichia coli, EKO35, technical duplicate
How it was run: as §1

[2] = system: wild-type E. coli K-12 str. BW25113; experiment: microbe, parasite or virus in culture; conditions: Escherichia coli, BW25113, technical duplicate
How it was run: as §1

ΔtolC-Pore = experiment: microbe, parasite or virus in culture
How it was run: (§2)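 E. coli strains carrying a genomically integrated constitutive fhuA ΔC/Δ4L pore were grown 18 h in LB at 37 °C, then diluted 1/2000 in MHB II from OD600 ~1.0. Compounds were tested in duplicate, 2-fold serial titration, for 18 h at 37 °C with shaking. MIC came from OD600 with the pre-incubation background subtracted.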

wild-type (WT) K-12-Pore = experiment: microbe, parasite or virus in culture; conditions: Escherichia coli, technical duplicate
How it was run: as §2

EKO-35 araC::mdtEF Pore = experiment: MIC susceptibility profiling, porinated efflux platform
How it was run: as §2

EKO-35 araC::emrKY Pore = experiment: as above
How it was run: as §2

EKO-35 araC::macAB Pore = experiment: as above
How it was run: as §2

EKO-35 araC::acrEF Pore = experiment: as above
How it was run: as §2

CC(=O)NC[C@H]1CN(c2ccc(N3CCOCC3)c(F)c2)C(=O)O1 [linezolid]
3.91 µg/mL: MIC (EKO-35 araC::mdtBC; Escherichia coli, Table 13B, non-porinated, technical duplicate, read-out: Minimum Inhibitory Concentration, EKO-35 araC::mdtBC) | MIC (EKO-35 araC::mdtEF; Escherichia coli, Table 13A, non-porinated, technical duplicate, read-out: Minimum Inhibitory Concentration, EKO-35 araC::mdtEF) | MIC (EKO-35 araC::emrKY; Escherichia coli, Table 13B, non-porinated, technical duplicate, read-out: Minimum Inhibitory Concentration, EKO-35 araC::emrKY) | MIC (EKO-35 araC::emrAB; Escherichia coli, Table 13B, non-porinated, technical duplicate, read-out: Minimum Inhibitory Concentration, EKO-35 araC::emrAB) | MIC (EKO-35 araC::macAB; Escherichia coli, Table 13B, non-porinated, technical duplicate, read-out: Minimum Inhibitory Concentration, EKO-35 araC::macAB) | MIC (ΔtolC-Pore; Escherichia coli, 18 h, read-out: Minimum inhibitory concentration, ΔtolC-Pore) | MIC (EKO-35 araC::emrKY Pore; Escherichia coli, EKO-35 araC::emrKY Pore, technical duplicate, read-out: Minimum inhibitory concentration) | MIC (EKO-35 araC::macAB Pore; Escherichia coli, EKO-35 araC::macAB Pore, technical duplicate, read-out: Minimum inhibitory concentration)
3.906 µg/mL: Minimum inhibitory concentration (MIC), Pore ΔtolC (ΔtolC-Pore; Table 10, with pore, technical duplicate)
2 fold: Fold change of MICs ([1]; EKO-35 araC::mexCD compared to EKO-35) | Fold change of MICs (EKO-35 araC::acrEF; EKO-35 araC::acrEF compared to EKO-35) | Fold changes of MICs (EKO-35 araC::mdtEF Pore; EKO-35 araC::mdtEF Pore compared to EKO-35-Pore) | Fold changes of MICs (EKO-35 araC::acrEF Pore; EKO-35 araC::acrEF Pore compared to EKO-35-Pore)
32 fold: Fold change of MICs (EKO-35 araC::acrB; EKO-35 araC::acrB compared to EKO-35)
7.813 µg/mL: Minimum inhibitory concentration (MIC), ΔtolC (E. coli ΔtolC; Table 10, without pore, technical duplicate)
1 fold: Fold change of MICs (EKO-35 araC::mdtBC; EKO-35 araC::mdtBC compared to EKO-35) | Fold change of MICs (EKO-35 araC::acrD; EKO-35 araC::acrD compared to EKO-35) | Fold change of MICs (EKO-35 araC::acrBD408A; EKO-35 araC::acrBD408A compared to EKO-35) | Fold change of MICs (EKO-35 araC::mdtEF; EKO-35 araC::mdtEF compared to EKO-35) | Fold change of MICs (EKO-35 araC::emrKY; EKO-35 araC::emrKY compared to EKO-35) | Fold change of MICs (EKO-35 araC::emrAB; EKO-35 araC::emrAB compared to EKO-35) | Fold change of MICs (EKO-35 araC::macAB; EKO-35 araC::macAB compared to EKO-35) | Fold change of MICs (E. coli EKO-35; EKO-35 compared to EKO-35 (reference)) | Fold changes of MICs (EKO-35 araC::emrKY Pore; EKO-35 araC::emrKY Pore compared to EKO-35-Pore) | Fold changes of MICs (EKO-35 araC::macAB Pore; EKO-35 araC::macAB Pore compared to EKO-35-Pore)
500 µg/mL: MIC ([2]; Table 10, without pore, read-out: Minimum inhibitory concentration (MIC), K-12) | MIC ([2]; Table 13A, non-porinated, read-out: Minimum Inhibitory Concentration, K-12)
7.81 µg/mL: MIC (EKO-35 araC::acrD; Escherichia coli, Table 13A, non-porinated, technical duplicate, read-out: Minimum Inhibitory Concentration, EKO-35 araC::acrD) | MIC (EKO-35 araC::acrBD408A; Escherichia coli, Table 13B, non-porinated, technical duplicate, read-out: Minimum Inhibitory Concentration, EKO-35 araC::acrBD408A) | MIC (E. coli ΔtolC; Escherichia coli, 18 h, read-out: Minimum Inhibitory Concentration, ΔtolC) | MIC (E. coli EKO-35; Table 10, without pore, read-out: Minimum inhibitory concentration (MIC), EKO-35) | MIC (E. coli EKO-35; Table 13A, non-porinated, read-out: Minimum Inhibitory Concentration, EKO-35) | MIC (EKO-35 araC::mdtEF Pore; Escherichia coli, Table 14A, porinated, technical duplicate, read-out: Minimum inhibitory concentration, EKO-35 araC::mdtEF Pore) | MIC (EKO-35 araC::acrEF Pore; Escherichia coli, Table 14A, porinated, technical duplicate, read-out: Minimum inhibitory concentration, EKO-35 araC::acrEF Pore)
125 µg/mL: MIC (wild-type (WT) K-12-Pore; Table 10, with pore, read-out: Minimum inhibitory concentration (MIC), Pore K-12) | MIC (wild-type (WT) K-12-Pore; Table 14A, porinated, read-out: Minimum inhibitory concentration, K-12 (WT)-Pore)
15.6 µg/mL: MIC ([1]; Table 13B, non-porinated, technical duplicate, read-out: Minimum Inhibitory Concentration, EKO-35 araC::mexCD) | MIC (EKO-35 araC::acrEF; Escherichia coli, Table 13A, non-porinated, technical duplicate, read-out: Minimum Inhibitory Concentration, EKO-35 araC::acrEF)
250 µg/mL: MIC (EKO-35 araC::acrB; Escherichia coli, Table 13A, non-porinated, technical duplicate, read-out: Minimum Inhibitory Concentration, EKO-35 araC::acrB)

From patent US20230407243A1, “GENETIC PLATFORM TO INVESTIGATE THE FUNCTIONS OF BACTERIAL DRUG EFFLUX PUMPS” (priority 2022, published 2023)
